From US4888355A, “Indanes and their use as antiarrhythmic agents” (priority 1986, dated 1989)

Legend:
[1] = In vivo analgesic activity, hot plate test; conditions: Mus musculus, sc, 0.5 h; female mice, copper plate 56° C.; subcutaneous; 30 minutes after treatment; read-out: DA100 (dose which increased the reaction time 100%)
Protocol: In the hot plate test, female mice weighing 22 to 24 g were placed individually on a copper plate maintained at 56° C. and the reaction to the pain was manifested by licking of the paws by the animal. […] The mice were divided into homogenous group and the test compound was administered subcutaneously with one group receiving only the vehicle. The reaction time to pain was measured again 30 to 60 minutes after treatment and the dose which increased the reaction time 100% (DA100) 30 minutes after treatment as compared to the control animals was determined. The DA100 for the compound of Example 1 was 8 mg/kg.

Diuretic activity = type: in vivo; conditions: male Sprague-Dawley rats; 1 mg/kg; period t1h-t2h
Protocol: Male rats of the Sprague-Dawley strain weighing 180 to 200 g were fasted for 17 hours before the test but received as much water as they desired. Groups of 8 rats were used for the test doses with the rats receiving the test compound or only the vehicle. The remaining volume was measured hourly for 2 hours after administration of the compound. At the end of this period, the urine was collected and the activity of the compounds was expressed as the percentage of variation calculated as the urinary volume in the period t1h -t2h.

[2] = Antiarythmic activity, aconitine perfusion in anesthesized rats; type: in vivo; conditions: male rats; 10 mg/kg intravenous, 5 minutes before aconitine perfusion 10 μg/mn; vs controls
Protocol: Tracheotomized male rats weighing 300 to 350 g were anesthesized intraperitonally with 1.20 g/kg of urethane and were subjected to artifical respiration of 40 to 50 insufflations of 3 ml/minute. Needles were implanted subcutaneously to register the electrocardiogram of the rats by the signal of DII derivative. The test compounds were administered intraveinously and 5 minutes later, the jugular veins of the rats were perfused with 10 μg/mn or 0.2 ml of an aconitine solution and the time of appearance of troubles in the cardiac rhythm was noted. The results were expressed as a percentage of the elongation of time of the appearance of the cardiac rhythm troubles as compared to the controls and as a function of the dose of the test compound.

Kappa opiate receptor = biological target: T1, Kappa opiate receptor (Cavia porcellus, UniProt P41144); assay: In vitro bonding of Kappa opiate receptor; type: binding; conditions: guinea pig cerebellum membranes; 1 nM 3H ethylketocyclazocine; pH 7.7; 25° C., 40 minutes; read-out: CI50 (50% inhibiting concentration)
T1 construct: Membrane culots preserved at -30° C. for about 30 days and prepared from guinea pig cerebellum; from tissue; host or cells: guinea pig cerebellum membranes
Protocol: Membrane culots preserved at -30° C. for about 30 days and prepared from guinea pig cerebellum were suspended in buffered Tris pH of 7.7. 2 ml fractions were placed in hemolysis tubes and 1 nM of 9^3 H ethylketocyclazocine and 5×10^-6 M of test compound were added thereto (in triple). When the test product displaced more than 50% of the radioactivity tied specifically to the receptor, the test was repeated with a range of seven doses to determine the dose which inhibited by 50% the radioactivity tied specifically to the receptor which is deemed CI50. The non-specific bond was determined by the addition of the known product, U-50488 H [Lahti et al., Life Science, Vol. 31 (1982), p 2257], at 10^-5 M (in triple). The mixture was incubated at 25° C. for 40 minutes, placed in a bath at 0° C. for 5 minutes and vacuum filtered. The product was rinsed with buffered Tris at a pH of 7.7 and the radioactivity was counted in the presence of Trition scintillation. The results were expressed directly as the 50% inhibiting concentration (CI50) or the concentration of the test compound which reduced by 50% radioactivity specificity fixed to the standard receptor.

Acute toxicity = type: in vivo; conditions: mice
Protocol: The LDO or the dose at which there was no mortality after 8 days was determined on mice and the DLO for the compounds of Example 1,3 and 4 was 100, 100 and 200 mg/kg, respectively.

T1 sequence (P41144 whole entry): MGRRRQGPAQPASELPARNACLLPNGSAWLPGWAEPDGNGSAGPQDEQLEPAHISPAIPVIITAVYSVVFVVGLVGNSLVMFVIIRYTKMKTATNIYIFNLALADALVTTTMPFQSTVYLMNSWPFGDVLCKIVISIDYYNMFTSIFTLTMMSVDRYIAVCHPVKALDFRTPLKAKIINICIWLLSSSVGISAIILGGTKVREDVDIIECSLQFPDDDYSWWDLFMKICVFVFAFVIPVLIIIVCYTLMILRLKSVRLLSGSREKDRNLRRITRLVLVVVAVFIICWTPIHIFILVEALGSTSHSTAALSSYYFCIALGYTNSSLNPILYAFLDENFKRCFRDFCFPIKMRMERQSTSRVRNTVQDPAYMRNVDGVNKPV

Structure (SMILES) | ED (100% increase in reaction time) [1] [mg/kg] | % Variation (urinary volume) (Diuretic activity) | % elongation of time of the appearance of the cardiac rhythm troubles [2] | IC50 (Kappa opiate receptor) [nM] | LDO (dose at which there was no mortality after 8 days) (Acute toxicity) [mg/kg]
CN(C(=O)Cc1cccc2sccc12)[C@@H]1c2ccccc2C[C@H]1N1CCCC1 (racemic) [Example 1, Trans (±) N-[2,3-dihydro-2-(pyrrolidin-1-yl)-1H-inden-1-yl]-N-methyl-4-benzo[b]thiophene-acetamide] | 8 | +131% | +65% | 1.8 | 100
CN(C(=O)Cc1cccc2ccccc12)[C@@H]1c2ccccc2C[C@H]1N1CCCC1 (racemic) [Example 3, trans (±) N-[2,3-dihydro-2-(1-pyrrolidinyl)-1H-inden-1-yl]-N-methyl-1-naphthalene-acetamide] |  | +267% |  | 4.9 | 100
CN(C(=O)Cc1ccc2ccccc2c1)[C@@H]1c2ccccc2C[C@H]1N1CCCC1 (racemic) [Example 4, Trans (±) N-[2,3-dihydro-2-(1-pyrrolidinyl)-1H-inden-1-yl]-N-methyl-2-naphthalene-acetamide] |  |  |  |  | 200
